In experiment [1] the target is T1, His6-HGFR (HGFR cytoplasmic domain) (Homo sapiens, UniProt P08581).
T1 construct: made in house; host or cells: Sf9 insect cells (Spodoptera frugiperda), baculovirus, pFastBac-HT vector
Kind of experiment: Inhibitory activity against HGFR tyrosine kinase activity (HTRF). Type of experiment: biochemical. The settings on record: biotin-poly(GT), ATP, 30° C. 10 min. In a few lines: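 Sf9-expressed, Ni-NTA-purified N-terminal His6-tagged HGFR cytoplasmic domain (from Lys974), 30 ng, phosphorylates 250 ng biotin-poly(GT) in Hepes pH 7.4 with MgCl2, MnCl2 and Na3VO4. Reaction started with 4 μM ATP stock, run 10 min at 30° C, stopped with EDTA. Phosphotyrosine is detected by HTRF.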
(In TR-FRET formats the signal depends on donor and acceptor labels being close together.)

The test system of experiment [2] is Human gastric cancer cells (MKN-45). Kind of experiment: Inhibitory activity against the proliferation of human gastric cancer cells (MKN-45). The class given is cell-based. The settings on record: 72 h, MKN-45, 1% FBS RPMI1640, 3 days, Cell Counting Kit-8. In a few lines: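 MKN-45 cells seeded overnight in RPMI1640 with 1% FBS, then exposed to compound for 3 days at 37° C, 5% CO2. Viability read with CCK-8 after about 1.5 hrs, absorbance at 450 nm (reference 660 nm).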
For orientation: Tetrazolium assays rely on reduction of a dye to a coloured formazan, in cell work by metabolically active cells.

Each structure is given as a SMILES string.

T1 sequence (P08581 956-1390 limits assumed): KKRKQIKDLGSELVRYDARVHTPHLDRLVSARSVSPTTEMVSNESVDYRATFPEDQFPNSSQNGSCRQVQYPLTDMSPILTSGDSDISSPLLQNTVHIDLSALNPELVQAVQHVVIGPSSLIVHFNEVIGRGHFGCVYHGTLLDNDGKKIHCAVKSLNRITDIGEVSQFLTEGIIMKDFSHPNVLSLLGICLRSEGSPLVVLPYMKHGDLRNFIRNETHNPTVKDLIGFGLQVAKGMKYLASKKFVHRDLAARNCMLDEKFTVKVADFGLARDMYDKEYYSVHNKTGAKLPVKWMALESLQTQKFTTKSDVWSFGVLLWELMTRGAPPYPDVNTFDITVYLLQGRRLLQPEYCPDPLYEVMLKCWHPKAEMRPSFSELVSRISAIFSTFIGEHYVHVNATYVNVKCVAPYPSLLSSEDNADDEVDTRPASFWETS

Regarding `CN1CCN(C(=O)Nc2cc(Oc3ccc(NC(=O)C4(C(=O)Nc5ccc(F)cc5)CC4)c(F)c3)ccn2)CC1` [Example 64, N-{2-Fluoro-4-[(2-{[(1-methylpiperazin-4-yl)carbonyl]amino}pyridin-4-yl)oxy]phenyl}-N′-(4-fluorophenyl)cyclopropane-1,1-dicarboxamide], the half-maximal inhibitory concentration (IC50) was 58 nM in experiment [1] and 57 nM in experiment [2].
For `O=C(Nc1cc(Oc2ccc(NC(=O)C3(C(=O)Nc4ccc(F)cc4)CC3)cc2F)ccn1)N1CCC1` [Example 65, N-[4-({2-[(Azetidin-1-ylcarbonyl)amino]pyridin-4-yl}oxy)-3-fluorophenyl]-N′-(4-fluorophenyl)cyclopropane-1,1-dicarboxamide], in that order: 15 nM and 23 nM.
As to `O=C(Nc1cc(Oc2ccc(NC(=O)C3(C(=O)Nc4ccc(F)cc4)CC3)cc2F)ccn1)N1CCCC1` [Example 66, N-(4-Fluorophenyl)-N′-[3-fluoro-4-({2-[(pyrrolidin-1-ylcarbonyl)amino]pyridin-4-yl}oxy)phenyl]cyclopropane-1,1′-dicarboxamide], the IC50 came out at 20 nM in experiment [1] and 31 nM in experiment [2].
In the same order, the values of `O=C(Nc1cc(Oc2ccc(NC(=O)C3(C(=O)Nc4ccc(F)cc4)CC3)cc2F)ccn1)N1CCOCC1` [Example 67, N-[3-Fluoro-4-({2-[(morpholin-4-ylcarbonyl)amino]pyridin-4-yl}oxy)phenyl]-N′-(4-fluorophenyl)-cyclopropane-1,1-dicarboxamide] are 17 nM and 52 nM.
In the same order, the values of `O=C(Nc1cc(Oc2ccc(NC(=O)C3(C(=O)Nc4ccc(F)cc4)CC3)cc2)ccn1)N1CCOCC1` [Example 68, N-(4-Fluorophenyl)-N′-[4-({2-[(morpholin-4-ylcarbonyl)amino]pyridin-4-yl}oxy)phenyl]cyclopropane-1,1-dicarboxamide] are 23 nM and 134 nM.
As to `O=C(Nc1cc(Oc2ccc(NC(=O)C3(C(=O)Nc4ccc(F)cc4)CC3)cc2)ccn1)N1CCCC1` [Example 69, N-(4-Fluorophenyl)-N′-[4-({2-[(pyrrolidin-1-ylcarbonyl)amino]pyridin-4-yl}oxy)phenyl]cyclopropane-1,1-dicarboxamide], the IC50 in experiment [1] is 31 nM; in experiment [2], 77 nM.
In the same order, the values of `O=C(Nc1cc(Oc2ccc(NC(=O)C3(C(=O)Nc4ccc(F)cc4)CC3)cc2)ccn1)N1CCC1` [Example 70, N-[4-({2-[(Azetidin-1-ylcarbonyl)amino]pyridin-4-yl}oxy)phenyl]-N′-(4-fluorophenyl)cyclopropane-1,1-dicarboxamide] are 19 nM and 54 nM.
With `O=C(Nc1cc(Oc2ccc(NC(=O)C3(C(=O)Nc4ccc(F)cc4)CC3)c(F)c2)ccn1)N1CCC(N2CCNCC2)CC1` [Example 71, N-(4-Fluorophenyl)-N′-{2-fluoro-4-[(2-{[(4-piperazin-1-ylpiperidin-1-yl)carbonyl]amino}pyridin-4-yl)oxy]phenyl}cyclopropane-1,1-dicarboxamide], the IC50 was found to be 121 nM in experiment [1] and 61 nM in experiment [2].
As for `O=C(Nc1cc(Oc2ccc(NC(=O)C3(C(=O)Nc4ccc(F)cc4)CC3)c(F)c2)ccn1)N1CC(O)C1` [Example 72, N-{2-Fluoro-4-[(2-{[(3-hydroxyazetidin-1-yl)carbonyl]amino}pyridin-4-yl)oxy]phenyl}-N′-(4-fluorophenyl)cyclopropane-1,1-dicarboxamide], the IC50 in experiment [1] was determined as 10 nM; in experiment [2] it was 22 nM.
In the same order, the values of `O=C(Nc1cc(Oc2ccc(NC(=O)C3(C(=O)Nc4ccc(F)cc4)CC3)c(F)c2)ccn1)N1CC(N2CCC2)C1` [Example 73, N-[4-({2-[(1,3′-Biazetidin-1′-ylcarbonyl)amino]pyridin-4-yl}oxy)-2-fluorophenyl]-N′-(4-fluorophenyl)cyclopropane-1,1-dicarboxamide] are 105 nM and 50 nM.
In the same order, the values of `O=C(Nc1cc(Oc2ccc(NC(=O)C3(C(=O)Nc4ccc(F)cc4)CC3)c(F)c2)ccn1)N1CC(CO)C1` [Example 75] are 10 nM and 19 nM.
For `CN(C)C1CN(C(=O)Nc2cc(Oc3ccc(NC(=O)C4(C(=O)Nc5ccc(F)cc5)CC4)c(F)c3)ccn2)C1` [Example 76, N-(4-{[2-({[3-(Dimethylamino)azetidin-1-yl]carbonyl}amino)pyridin-4-yl]oxy}-2-fluorophenyl)-N′-(4-fluorophenyl)cyclopropane-1,1-dicarboxamide], in that order: 45 nM and 19 nM.
In the case of `CN(C)CC1CN(C(=O)Nc2cc(Oc3ccc(NC(=O)C4(C(=O)Nc5ccc(F)cc5)CC4)c(F)c3)ccn2)C1` [Example 77, N-[4-({2-[({3-[(Dimethylamino)methyl]azetidin-1-yl}carbonyl)amino]pyridin-4-yl}oxy)-2-fluorophenyl]-N′-(4-fluorophenyl)cyclopropane-1,1-dicarboxamide], the IC50 worked out at 58 nM in experiment [1] and 19 nM in experiment [2].
For `COC1CN(C(=O)Nc2cc(Oc3ccc(NC(=O)C4(C(=O)Nc5ccc(F)cc5)CC4)c(F)c3)ccn2)C1` [Example 78, N-[2-Fluoro-4-[(2-{[(3-methoxyazetidin-1-yl)carbonyl]amino}pyridin-4-yl)oxy]phenyl}-N′-(4-fluorophenyl)cyclopropane-1,1-dicarboxamide], in that order: 14 nM and 12 nM.
For `COC1CN(C(=O)Nc2cc(Oc3ccc(NC(=O)C4(C(=O)Nc5ccc(F)cc5)CC4)cc3F)ccn2)C1` [Example 79], in that order: 14 nM and 15 nM.
For `O=C(Nc1cc(Oc2ccc(NC(=O)C3(C(=O)Nc4ccc(F)cc4)CC3)cc2F)ccn1)N1CC(O)C1` [Example 80, N-{3-Fluoro-4-[(2-{[(3-hydroxyazetidin-1-yl)carbonyl]amino}pyridin-4-yl)oxy]phenyl}-N′-(4-fluorophenyl)cyclopropane-1,1-dicarboxamide], the IC50 in experiment [1] and in experiment [2] was 18 nM in each case.
In the case of `O=C(Nc1cc(Oc2cc(F)c(NC(=O)C3(C(=O)Nc4ccc(F)cc4)CC3)cc2F)ncn1)N1CC(CO)C1` [Example 99, N-(2,5-Difluoro-4-{[4-({[3-(hydroxymethyl)azetidin-1-yl]carbonyl}amino)pyrimidin-6-yl]oxy}phenyl)-N′-(4-fluorophenyl)cyclopropane-1,1-dicarboxamide], the IC50 came to 33 nM in experiment [1] and 18 nM in experiment [2].
Turning to `CN1CCC(N(C)C(=O)Nc2cc(Oc3cc(F)c(NC(=O)C4(C(=O)Nc5ccc(F)cc5)CC4)cc3F)ncn2)CC1` [Example 100, N-(2,5-Difluoro-4-{[4-({[methyl(1-methylpiperidin-4-yl)amino]carbonyl}amino)pyrimidin-6-yl]oxy}phenyl)-N′-(4-fluorophenyl)cyclopropane-1,1-dicarboxamide], the IC50 in experiment [1] stood at 85 nM; in experiment [2] it was 16 nM.
For `CN1CCN(C2CCN(C(=O)Nc3cc(Oc4cc(F)c(NC(=O)C5(C(=O)Nc6ccc(F)cc6)CC5)cc4F)ncn3)CC2)CC1` [Example 101, N-(2,5-Difluoro-4-{[4-({[4-(4-methylpiperazin-1-yl)piperidin-1-yl]carbonyl}amino)pyrimidin-6-yl]oxy}phenyl)-N′-(4-fluorophenyl)cyclopropane-1,1-dicarboxamide], in that order: 72 nM and 16 nM.
For `CN(C)C1CCN(C(=O)Nc2cc(Oc3cc(F)c(NC(=O)C4(C(=O)Nc5ccc(F)cc5)CC4)cc3F)ncn2)CC1` [Example 102, N-(4-{[4-({[4-(Dimethylamino)piperidin-1-yl]carbonyl}amino)pyrimidin-6-yl]oxy}-2,5-difluorophenyl)-N′-(4-fluorophenyl)cyclopropane-1,1-dicarboxamide], in that order: 72 nM and 40 nM.
For `CN(C)C1CCN(C(=O)Nc2cc(Oc3cc(F)c(NC(=O)C4(C(=O)Nc5ccc(F)cc5)CC4)cc3F)ccn2)CC1` [Example 103, N-(4-{[2-({[4-(Dimethylamino)piperidin-1-yl]carbonyl}amino)pyridin-4-yl]oxy}-2,5-difluorophenyl)-N′-(4-fluorophenyl)cyclopropane-1,1-dicarboxamide], in that order: 57 nM and 5.8 nM.
Turning to `CN1CCN(C(=O)Nc2cc(Oc3cc(F)c(NC(=O)C4(C(=O)Nc5ccc(F)cc5)CC4)cc3F)ccn2)CC1` [Example 104, N-{2,5-Difluoro-4-[(2-{[(4-methylpiperazin-1-yl)carbonyl]amino}pyridin-4-yl]oxy}phenyl)-N′-(4-fluorophenyl)cyclopropane-1,1-dicarboxamide], the IC50 in experiment [1] was found to be 71 nM; in experiment [2], 6.8 nM.
For `O=C(Nc1cc(Oc2cc(F)c(NC(=O)C3(C(=O)Nc4ccc(F)cc4)CC3)cc2F)ccn1)N1CCC(O)CC1` [Example 105], in that order: 15 nM and 4.1 nM.
In the same order, the values of `O=C(Nc1cc(Oc2ccc(NC(=O)C3(C(=O)Nc4ccc(F)cc4)CC3)c(F)c2F)ccn1)N1CC(O)C1` [Example 106, N-[2,3-Difluoro-4-[(2-{[(3-hydroxyazetidin-1-yl)carbonyl]amino}pyridin-4-yl)oxy]phenyl}-N′-(4-fluorophenyl)cyclopropane-1,1-dicarboxamide] are 16 nM and 46 nM.
In the same order, the values of `CN(C)CC1CN(C(=O)Nc2cc(Oc3ccc(NC(=O)C4(C(=O)Nc5ccc(F)cc5)CC4)c(F)c3F)ccn2)C1` [Example 107, N-[4-({2-[({3-[(Dimethylamino)methyl]azetidine-1-yl}carbonyl)amino]pyridin-4-yl}oxy)-2,3-difluorophenyl]-N′-(4-fluorophenyl)cyclopropane-1,1-dicarboxamide] are 61 nM and 21 nM.

A word on the IC50: it is the point on the concentration scale where inhibition reaches its midpoint. Low values mean inhibition by little substance, high ones a need for much substance.
